This is an account of results in US20120035855A1, “METHOD OF NETWORK-BASED IDENTIFICATION FOR DRUG ACTION AND/OR SYNERGY EFFECT OF MEDICINE COMBINATION” (TSINGHUA UNIVERSITY, priority 2008, published 2012).

In the assay the test system is Human Umbilical Vein Endothelial Cells (HUVECs). Put plainly: Cell scratch experiment, inhibition of endothelial cell migration. The assay is classed as cell-based. The following applies: single medicine; for Ranking by experiment results: rank of migration inhibition among six medicines, 9 h. More on the design: Ranking by experiment results: dose or concentration left out as unconfirmed. The source says:
Experiment: cell scratch experiments were used to quantitively measure the inhibition of medicines on migration. […] Sterile operation had to be ensured during cell scrapping process. Human Umbilical Vein Endothelial Cells (HUVECs) available from Cascade Biologics (Portland, USA) were repeatably cultured with the supplier's criterions; Matrine, quercetin, emodin, evodiamine, genistein, and aconitine were purchased from National Institute for the Control of Pharmaceutical and Biological Products, and their experimental density were set at 10 mM as indicated by literature. HUVECs were cultured on 12-plate coated by 0.1% gelatin, the cells were inactivated after 2 hours under the conditions of 5% CO2, 37° C. and 10 ug/ml of Mitonycin C. Cell scraper about 1 mm in width was used to scrap on the fused surface of single-layer of cells. Standard endothelial cell growth medium (ECGM) free of medicine application was taken as control group. Pictures were taken at 6 h−10 h of medicine intervention by Nikon digital camera, with migration distance being scaled by configure software. The experiment was repeated five times. The […] ability of the medicines was measured by Migration Inhibition Rate, determined as:
Migration Inhibition Rate=(migration distance of control group−migration distance of experimental group)/migration distance of control group

As to `CCN1C[C@]2(COC)[C@H](O)C[C@H](OC)[C@@]34[C@@H]5C[C@@]6(O)[C@H](OC(=O)c7ccccc7)[C@@H]5[C@@](OC(C)=O)([C@@H]([C@H](OC)[C@H]23)[C@@H]14)[C@@H](O)[C@@H]6OC` [Aconitine], the “Ranking by experiment results” value is reported as 6. Still for that read-out and setting: the figure for `Cc1cc(O)c2c(c1)C(=O)c1cc(O)cc(O)c1C2=O` [Emodin] is 3; for `O=c1c(-c2ccc(O)cc2)coc2cc(O)cc(O)c12` [Genistein] it is 5. For the molecule `O=C1CCC[C@@H]2[C@H]3CCCN4CCC[C@@H](CN12)[C@@H]34` [Matrine], the “Ranking by experiment results” value came out at 1. Moreover, where the note is “9 h intervention, FIG. 4”, the “inhibition on endothelial cell migration (in words)” value was “strongest inhibition”. Consider `O=c1c(O)c(-c2ccc(O)c(O)c2)oc2cc(O)cc(O)c12` [Quercetin], for which the “Ranking by experiment results” value came to 2. On the same count and under the same terms, the figure for Evodiamine is 4.
